In patent publication US7309701B2, “Pyridazinone derivatives as pharmaceuticals and pharmaceutical compositions containing them” (Sanofi-Aventis Deutschland GmbH, priority 2002, dated 2007) one finds melting point and IC50 data, which are given here for 31 molecules.

Tested on in one data set: not given
Test: not given
Details: not given
As to `CCOC(=O)CCNC(=O)c1cc(-c2ccncc2)n[nH]c1=O` [Example 13, Ethyl 3-[(3-oxo-6-pyridin-4-yl-2,3-dihydropyridazine-4-carbonyl)amino]propionate], the melting point (in general, the temperature, or range, at which the solid turns liquid) came to 180 °C. The molecule `O=C(NCc1ccccc1)c1cc(-c2ccncc2)n[nH]c1=O` [Example 3, N-benzyl-3-oxo-6-pyridin-4-yl-2,3-dihydropyridazine-4-carboxamide] came in with a melting point of 258 °C. On the same count and under the same terms, as for `O=C(NCc1ccc(Cl)cc1Cl)c1cc(-c2ccccc2)n[nH]c1=O` [Example 1, N-(2,4-dichlorobenzyl)-3-oxo-6-phenyl-4-yl-2,3-dihydropyridazine-4-carboxamide], the figure is ~ 258 °C; as for `O=C(NCc1ccccn1)c1cc(-c2ccncc2)n[nH]c1=O` [Example 15, 3-oxo-6-pyridin-4-yl-N-(pyridin-2-ylmethyl)-2,3-dihydropyridazine-4-carboxamide], 242 °C.

The molecule `O=C(NCc1cccnc1)c1cc(-c2ccncc2)n[nH]c1=O` [Example 14, 3-oxo-6-pyridin-4-yl-N-(pyridin-3-ylmethyl)-2,3-dihydropyridazine-4-carboxamide] showed a melting point of 262 °C. On the same count and under the same terms, to `CCCCNC(=O)c1cc(-c2ccncc2)n[nH]c1=O` [Example 12, 3-oxo-6-pyridin-4-yl-N-(n-butyl)-2,3-dihydropyridazine-4-carboxamide] belongs 209 °C; to `O=C(NCCc1ccc(Cl)cc1Cl)c1cc(-c2ccncc2)n[nH]c1=O` [Example 6, N-[2-(2,4-dichlorophenyl)ethyl]-3-oxo-6-pyridin-4-yl-2,3-dihydropyridazine-4-carboxamide], 202 °C; to `O=C(NCc1cccc(C(F)(F)F)c1)c1cc(-c2ccncc2)n[nH]c1=O` [Example 9, 3-oxo-6-pyridin-4-yl-N-[3-(trifluoromethyl)benzyl]-2,3-dihydropyridazine-4-carboxamide], 224 °C. The same measure, in the same setting: as for `O=C(NCc1ccc(N2CCOCC2)cc1)c1cc(-c2ccncc2)n[nH]c1=O` [Example 17, N-(4-morpholin-4-ylbenzyl)-3-oxo-6-pyridin-4-yl-2,3-dihydropyridazine-4-carboxamide], the figure is 252 °C.

In the next data set the target is human recombinant GSK-3β (Homo sapiens, UniProt P49841). Put plainly: GSK-3β activity, AlphaScreen with primed glycogen synthase substrate peptide. The format is biochemical.
human recombinant GSK-3β, sequence (P49841 whole entry): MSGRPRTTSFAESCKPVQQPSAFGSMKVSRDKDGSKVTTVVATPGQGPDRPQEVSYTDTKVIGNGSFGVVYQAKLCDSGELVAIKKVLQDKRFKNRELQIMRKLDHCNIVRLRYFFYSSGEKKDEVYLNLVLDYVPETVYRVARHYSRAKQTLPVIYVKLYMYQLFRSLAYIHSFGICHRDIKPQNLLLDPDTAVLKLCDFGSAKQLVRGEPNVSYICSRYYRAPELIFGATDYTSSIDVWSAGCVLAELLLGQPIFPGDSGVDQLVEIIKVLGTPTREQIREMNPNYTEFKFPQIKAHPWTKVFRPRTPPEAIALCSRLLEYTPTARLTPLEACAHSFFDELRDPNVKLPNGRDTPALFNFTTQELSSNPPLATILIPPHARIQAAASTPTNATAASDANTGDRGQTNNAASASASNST
Details: not given
As for the experimental part: GSK-β activity was measured using human recombinant GSK-3β and a primed (pre-phosphorylated) substrate peptide (derived from glycogen synthase and containing the phosphorylation sites 3a, b, and c) on basis of the AlphaScreen technology in 384-well plate format (small volume plate, white, GREINER).
As to `O=C(NCc1ccc(Cl)cc1)c1cc(-c2ccc(O)c(F)c2)n[nH]c1=O` [Example 183, 6-(3-Fluoro-4-hydroxy-phenyl)-3-oxo-2,3-dihydro-pyridazine-4-carboxylic acid 4-chloro-benzylamide], the IC50 (usually the concentration that inhibits the measured activity by half) stood at 39 nM. Consider `CCCCNc1nccc(-c2cc(C(=O)NCCCc3cccnc3)c(=O)[nH]n2)n1` [Example 220, 6-(2-Butylamino-pyrimidin-4-yl)-3-oxo-2,3-dihydro-pyridazine-4-carboxylic acid (3-pyridin-3-yl-propyl)-amide], for which the IC50 turned out to be 36 nM.

Consider `O=C(NCc1ccc(F)cc1F)c1cc(-c2ccncc2)n[nH]c1=O` [Example 117, 3-Oxo-6-pyridin-4-yl-2,3-dihydro-pyridazine-4-carboxylic acid 2,4-difluoro-benzylamide;compound withtrifluoro-acetic acid], for which the IC50 was 65 nM.

The same data set, now with this note: human recombinant GSK-3β, 10 μM ATP, 60 min at room temperature, AlphaScreen; read-out: IC50.
Take `O=C(NCc1ccc(Cl)cc1)c1cc(-c2cc(F)c(O)c(F)c2)n[nH]c1=O` [Example 182, 6-(3,5-Difluoro-4-hydroxy-phenyl)-3-oxo-2,3-dihydro-pyridazine-4-carboxylic acid 4-chloro-benzylamide]: the IC50 was 170 nM.

Turning to `O=C(NCCCc1cccnc1)c1cc(-c2ccc(O)cc2)n[nH]c1=O` [Example 164, 6-(4-Hydroxy-phenyl)-3-oxo-2,3-dihydro-pyridazine-4-carboxylic acid (3-pyridin-3-yl-propyl)-amide], the IC50 stood at 7 nM. Same read-out and setting: as for `Cc1cc(-c2cc(C(=O)NCc3ccc(Cl)cc3)c(=O)[nH]n2)ccc1O` [Example 155], the figure is 10300 nM; as for `O=C(NCc1ccc(C(F)(F)F)cc1)c1cc(-c2ccncc2)n[nH]c1=O` [Example 112, 3-Oxo-6-pyridin-4-yl-2,3-dihydro-pyridazine-4-carboxylic acid 4-trifluoromethyl-benzylamide;compound withtrifluoro-acetic acid], 123 nM; as for `C[C@@H](Nc1nccc(-c2cc(C(=O)NCCCc3ccccc3)c(=O)[nH]n2)n1)c1ccccc1` [Example 215, R-3-Oxo-6-[2-(1-phenyl-ethylamino)-pyrimidin-4-yl]-2,3-dihydro-pyridazine-4-carboxylic acid(3-phenyl-propyl)-amide], 24 nM.

For the molecule `COc1cc(-c2cc(C(=O)NCc3ccc(Cl)cc3)c(=O)[nH]n2)ccc1O` [Example 41, 6-(4-Hydroxy-3-methoxy-phenyl)-3-oxo-2,3-dihydro-pyridazine-4-carboxylic acid 4-chloro-benzylamide], the 50% inhibitory concentration (IC50) was found to be 2300 nM. On to `CCCCNc1nccc(-c2cc(C(=O)NCc3cccnc3)c(=O)[nH]n2)n1` [Example 219, 6-(2-Butylamino-pyrimidin-4-yl)-3-oxo-2,3-dihydro-pyridazine-4-carboxylic acid(pyridin-3-ylmethyl)-amide], for which the IC50 was 29 nM. On the same count and under the same terms, as for `O=C(NCc1ccc(Br)cc1)c1cc(-c2ccncc2)n[nH]c1=O` [Example 75, 3-Oxo-6-pyridin-4-yl-2,3-dihydro-pyridazine-4-carboxylic acid 4-bromo-benzylamide;compound withtrifluoro-acetic acid], the figure is 380 nM. On the same count and under the same terms, as for `O=C(NCc1ccc(Cl)cc1)c1cc(-c2ccnc(NCCN3CCOCC3)n2)n[nH]c1=O` [Example 175, 6-[2-(2-Morpholin-4-yl-ethylamino)-pyrimidin-4-yl]-3-oxo-2,3-dihydro-pyridazine-4-carboxylic acid 4-chloro-benzylamide;compound withtrifluoro-acetic acid], the figure is 17 nM.

Turning to `Cc1cc(-c2cc(C(=O)NCCCc3cccnc3)c(=O)[nH]n2)cc(C)c1O` [Example 48, 6-(4-Hydroxy-3,5-dimethyl-phenyl)-3-oxo-2,3-dihydro-pyridazine-4-carboxylic acid (3-pyridin-3-yl-propyl)-amide], the half-inhibitory concentration (IC50) amounted to 36 nM.

For `CCNc1nccc(-c2cc(C(=O)NCc3ccc(Cl)cc3)c(=O)[nH]n2)n1` [Example 190, 6-(2-Ethylamino-pyrimidin-4-yl)-3-oxo-2,3-dihydro-pyridazine-4-carboxylic acid 4-chloro-benzylamide], the IC50 is over 1000 nM. On the same count and under the same terms, as for `COc1cc(-c2cc(C(=O)NCCCc3cccnc3)c(=O)[nH]n2)ccc1O` [Example 49, 6-(4-Hydroxy-3-methoxy-phenyl)-3-oxo-2,3-dihydro-pyridazine-4-carboxylic acid (3-pyridin-3-yl-propyl)-amide], the figure is 1 nM; as for `CNc1cc(-c2cc(C(=O)NCc3ccc(Cl)cc3)c(=O)[nH]n2)ccn1` [Example 206, 6-(2-Methylamino-pyridin-4-yl)-3-oxo-2,3-dihydro-pyridazine-4-carboxylic acid 4-chloro-benzylamide], 30 nM. For `O=C(NCc1ccc(Cl)cc1)c1cc(-c2ccc(O)c(Cl)c2)n[nH]c1=O` [Example 180, 6-(3-Chloro-4-hydroxy-phenyl)-3-oxo-2,3-dihydro-pyridazine-4-carboxylic acid 4-chloro-benzylamide], the IC50 came to 227 nM. Still for that read-out and setting: to `O=C(NCc1cccnc1)c1cc(-c2ccncc2)n[nH]c1=O` [Example 14, 3-oxo-6-pyridin-4-yl-N-(pyridin-3-ylmethyl)-2,3-dihydropyridazine-4-carboxamide] belongs 97 nM; to `O=C(NCc1ccc(Cl)cc1F)c1cc(-c2ccncc2)n[nH]c1=O` [Example 116, 3-Oxo-6-pyridin-4-yl-2,3-dihydro-pyridazine-4-carboxylic acid 4-chloro-2-fluoro-benzylamide;compound withtrifluoro-acetic acid], 250 nM; to `Cc1cc(-c2cc(C(=O)NCc3ccc(C(=O)O)cc3)c(=O)[nH]n2)cc(C)c1O` [Example 32, 4-({[6-(4-Hydroxy-3,5-dimethyl-phenyl)-3-oxo-2,3-dihydro-pyridazine-4-carbonyl]-amino}-methyl)-benzoic acid], 5 nM.

On to `O=C(NCc1ccc(N2CCOCC2)cc1)c1cc(-c2ccncc2)n[nH]c1=O` [Example 17, N-(4-morpholin-4-ylbenzyl)-3-oxo-6-pyridin-4-yl-2,3-dihydropyridazine-4-carboxamide], for which the IC50 stood at 251 nM.

As to `O=C(Nc1ccncc1)c1ccc(CNC(=O)c2cc(-c3ccncc3)n[nH]c2=O)cc1` [Example 156, 3-Oxo-6-pyridin-4-yl-2,3-dihydro-pyridazine-4-carboxylic acid 4-(pyridin-4-ylcarbamoyl)-benzylamide;compound withtrifluoro-acetic acid], the IC50 amounted to 86 nM. Still for that read-out and setting: as for `CCCCNc1nccc(-c2cc(C(=O)NCCCN3CCN(C)CC3)c(=O)[nH]n2)n1` [Example 218, 6-(2-Butylamino-pyrimidin-4-yl)-3-oxo-2,3-dihydro-pyridazine-4-carboxylic acid [3-(4-methyl-piperazin-1-yl)-propyl]-amide;compound withtrifluoro-acetic acid], the figure is 22 nM; as for `COc1cc(-c2cc(C(=O)NCc3ccc(C(=O)O)cc3)c(=O)[nH]n2)ccc1O` [Example 225, 4-({[6-(4-Hydroxy-3-methoxy-phenyl)-3-oxo-2,3-dihydro-pyridazine-4-carbonyl]-amino}-methyl)-benzoic acid], 9 nM.
